# pIC50: −log10 of the molar value. Active and inactive are the calls of the source. No cut-off for these calls is given here.
# Key:
# [1] = Clearance in male Beagle dog at 1 mg/kg, iv measured after 24 hrs by LC-MS/MS analysis; type: ADME, organism-based, Canis lupus familiaris; conditions: in vivo
# [2] = Half-life in female Lewis rat at 1 mg/kg, po measured after 24 hrs by LC-MS/MS analysis; type: ADME, organism-based; conditions: in vivo
# [3] = Selectivity ratio of IC50 for inhibition of N-terminal GST-tagged wildtype human P38alpha (4 to 152 residues) extracted from Escherichia coli/GST-tagged PRAK (unknown origin) to IC50 for inhibition of N-terminal GST-tagged wildtype human P38alpha (4 to 152 residues) extracted from Escherichia coli/GST-tagged MK2 (unknown origin)
# [4] = Half-life in male Sprague-Dawley rat at 1 mg/kg, iv measured after 24 hrs by LC-MS/MS analysis; type: ADME, organism-based; conditions: in vivo
# [5] = Cmax in female Lewis rat at 3 mg/kg, po measured after 24 hrs by LC-MS/MS analysis; type: ADME, organism-based; conditions: in vivo
# [6] = AUC (0 to 24 hrs) in female Lewis rat at 3 mg/kg, po measured after 24 hrs by LC-MS/MS analysis; type: ADME, organism-based; conditions: in vivo
# [7] = Half-life in male Beagle dog at 1 mg/kg, iv measured after 24 hrs by LC-MS/MS analysis; type: ADME, organism-based, Canis lupus familiaris; conditions: in vivo
# [8] = Inhibition of N-terminal GST-tagged wildtype human P38alpha (4 to 152 residues) extracted from Escherichia coli/GST-tagged PRAK (unknown origin) assessed as reduction in HSP27 phosphorylation incubated for 2 hrs in presence of ATP and HSP27-FITC peptide by fluorescence polarization based IMAP assay
# [9] = Volume of distribution at steady state in male Beagle dog at 1 mg/kg, iv measured after 24 hrs by LC-MS/MS analysis; type: ADME, organism-based, Canis lupus familiaris; conditions: in vivo, read-out: Vdss
# [10] = Oral bioavailability in male Beagle dog at 2 mg/kg measured after 24 hrs by LC-MS/MS analysis; type: ADME, organism-based, Canis lupus familiaris; conditions: in vivo
# [11] = test system: PBMC; assay: Inhibition of LPS-induced IL-6 production in human PBMC cells at 0.01 to 10000 nM preincubated with compound for 1 hrs followed by LPS addition and measured after 4 hrs; type: functional, cell-based; conditions: dose 0.01-10000 nM, time 5.0 hrs
# [12] = test system: PBMC; assay: Inhibition of LPS-induced TNF-alpha production in human PBMC cells at 0.01 to 10000 nM preincubated with compound for 1 hrs followed by LPS addition and measured after 4 hrs; type: functional, cell-based; conditions: dose 0.01-10000 nM, time 5.0 hrs
# [13] = Solubility of compound in PBS at pH 7.4 measured after 4 to 24 hrs by LC-MS analysis; type: physicochemical; conditions: time 4-24 hrs
# [14] = Inhibition of N-terminal GST-tagged wildtype human P38alpha (4 to 152 residues) extracted from Escherichia coli/GST-tagged MK2 (unknown origin) assessed as reduction in HSP27 phosphorylation incubated for 2 hrs in presence of ATP and HSP27-FITC peptide by fluorescence polarization based IMAP assay
# [15] = MRT in male Sprague-Dawley rat at 1 mg/kg, iv measured after 24 hrs by LC-MS/MS analysis; type: ADME, organism-based; conditions: in vivo
# [16] = AUC (0 to 24 hrs) in female Lewis rat at 1 mg/kg, po measured after 24 hrs by LC-MS/MS analysis; type: ADME, organism-based; conditions: in vivo
# [17] = AUClast in male Sprague-Dawley rat at 2 mg/kg, po measured after 24 hrs by LC-MS/MS analysis; type: ADME, organism-based; conditions: in vivo
# [18] = Cmax in male Sprague-Dawley rat at 2 mg/kg, po measured after 24 hrs by LC-MS/MS analysis; type: ADME, organism-based; conditions: in vivo
# [19] = AUClast in male Sprague-Dawley rat at 1 mg/kg, iv measured after 24 hrs by LC-MS/MS analysis; type: ADME, organism-based; conditions: in vivo
# [20] = Cmax in female Lewis rat at 1 mg/kg, po measured after 24 hrs by LC-MS/MS analysis; type: ADME, organism-based; conditions: in vivo
# [21] = Oral bioavailability in male Sprague-Dawley rat at 2 mg/kg measured after 24 hrs by LC-MS/MS analysis; type: ADME, organism-based; conditions: in vivo
# [22] = MRT in male Beagle dog at 1 mg/kg, iv measured after 24 hrs by LC-MS/MS analysis; type: ADME, organism-based, Canis lupus familiaris; conditions: in vivo
# [23] = Cmax in male Beagle dog at 2 mg/kg, po measured after 24 hrs by LC-MS/MS analysis; type: ADME, organism-based, Canis lupus familiaris; conditions: in vivo
# [24] = AUClast in male Beagle dog at 2 mg/kg, po measured after 24 hrs by LC-MS/MS analysis; type: ADME, organism-based, Canis lupus familiaris; conditions: in vivo
# [25] = Clearance in male Sprague-Dawley rat at 1 mg/kg, iv measured after 24 hrs by LC-MS/MS analysis; type: ADME, organism-based; conditions: in vivo
# [26] = test system: Rattus norvegicus; assay: Antiarthritic activity in Mycobacterium tuberculosis H37R-induced female Lewis rat model of arthritis assessed as reduction in paw inflammation at 3 mg/kg, po administered twice daily for 15 days starting from day 13 after adjuvant administration by micro-CT analysis; type: functional, organism-based; conditions: time 15.0 day
# [27] = test system: PBMC; assay: Inhibition of LPS-induced IL-8 production in human PBMC cells at 0.01 to 10000 nM preincubated with compound for 1 hrs followed by LPS addition and measured after 4 hrs; type: functional, cell-based; conditions: dose 0.01-10000 nM, time 5.0 hrs
# [28] = Volume of distribution at steady state in male Sprague-Dawley rat at 1 mg/kg, iv measured after 24 hrs by LC-MS/MS analysis; type: ADME, organism-based; conditions: in vivo, read-out: Vdss
# [29] = AUClast in male Beagle dog at 1 mg/kg, iv measured after 24 hrs by LC-MS/MS analysis; type: ADME, organism-based, Canis lupus familiaris; conditions: in vivo
# [30] = Half-life in female Lewis rat at 3 mg/kg, po measured after 24 hrs by LC-MS/MS analysis; type: ADME, organism-based; conditions: in vivo
smiles,measurement,setting,value
Cc1cnc(-c2ccnc(C(C)(C)O)n2)cc1-n1c(C)cc(OCc2ncc(F)cc2F)c(Cl)c1=O [ZUNSEMETINIB],clearance,[1],7.5 mL/min/kg
same,half-life,[2],1.9 h
same,Ratio IC50,[3],971
same,half-life,[4],1.1 h
same,Cmax,[5],781 ng/mL
same,AUC(0-t) at 24 h,[6],2520 ng·h/mL
same,half-life,[7],3.4 h
same,pIC50,[8],5.19
same,Vd,[9],1.5 L/kg
same,bioavailability,[10],73%
same,inhibition,[11],Active
same,inhibition,[12],Active
same,solubility,[13],5.6 µg/mL
same,pIC50,[14],8.18
same,MRT,[15],1.1 h
same,AUC(0-t) at 24 h,[16],682 ng·h/mL
same,AUC(0-t) at 24 h,[17],1830 ng·h/mL
same,Cmax,[18],415 ng/mL
same,AUC(0-t) at 24 h,[19],1280 ng·h/mL
same,Cmax,[20],217 ng/mL
same,bioavailability,[21],71%
same,MRT,[22],3.4 h
same,Cmax,[23],587 ng/mL
same,AUC(0-t) at 24 h,[24],3230 ng·h/mL
same,clearance,[25],13.1 mL/min/kg
same,Activity,[26],inactive
same,inhibition,[27],Active
same,Vd,[28],0.8 L/kg
same,AUC(0-t) at 24 h,[29],2230 ng·h/mL
same,half-life,[30],1.6 h
Cc1cnc(-c2cccc(C(C)(C)O)c2F)cc1-n1c(C)cc(O[C@@H](C)c2ncc(F)cc2F)c(Cl)c1=O,Ratio IC50,[3],315
same,pIC50,[8],6.30
same,pIC50,[14],8.80
Cc1cnc(-c2ccnc(C(C)(C)O)n2)cc1N1CCC(OCc2ncc(F)cc2F)CC1=O (stereo not given),pIC50,[14],< 5.00
Cc1nn(-c2ccnc(C(C)(C)O)n2)cc1-n1c(C)cc(OCc2ncc(F)cc2F)c(Cl)c1=O,pIC50,[14],5.88
Cc1ccc(-c2ccnc(C(C)(C)O)n2)cc1-n1c(C)cc(OCc2ncc(F)cc2F)c(Cl)c1=O,Ratio IC50,[3],805
same,pIC50,[8],5.54
same,pIC50,[14],8.44
Cc1cnc(-c2cccc(C(C)(C)O)c2F)c(F)c1-n1c(C)cc(O[C@@H](C)c2ncc(F)cc2F)c(Cl)c1=O,Ratio IC50,[3],33
same,pIC50,[8],7.64
same,pIC50,[14],9.15
Cc1cnc(-c2ccnc(C(C)(C)O)n2)cc1-c1c(C)cc(OCc2ncc(F)cc2F)c(Cl)[n+]1[O-],pIC50,[14],7.08
Cc1cnc(-c2ccnc(C(C)(C)O)n2)cc1-c1c(F)cc(OCc2ncc(F)cc2F)c(Cl)c1C,pIC50,[14],< 5.00
Cc1cnc(-c2cccc(C(C)(C)O)c2F)cc1-n1c(C)cc(O[C@@H](C)c2ncc(F)cc2F)c(C)c1=O,pIC50,[14],7.81
Cc1cnc(-c2ccnc(C(C)(C)O)n2)cc1-c1c(C)cc(OCc2ncc(F)cc2F)c[n+]1[O-],pIC50,[14],< 5.00
Cc1cc(OCc2ncc(F)cc2F)c(Cl)c(=O)n1C1=CCCN(c2ccnc(C(C)(C)O)n2)C1,pIC50,[14],< 5.00
Cc1cnc(-c2cccc(C(C)(C)O)c2Cl)c(F)c1-n1c(C)cc(OCc2ncc(F)cc2F)c(Cl)c1=O,pIC50,[14],8.22
Cc1cnc(-c2cccc(C(C)(C)O)c2C)c(F)c1-n1c(C)cc(OCc2ncc(F)cc2F)c(Cl)c1=O,pIC50,[14],7.17
Cc1cnc(-c2ccnc(C(C)(C)O)n2)nc1-n1c(C)cc(OCc2ncc(F)cc2F)c(Cl)c1=O,pIC50,[14],< 5.00
Cc1cnc(-c2cccc(C(C)(C)O)c2)cc1-n1c(C)cc(OCc2ncc(F)cc2F)c(Cl)c1=O,Ratio IC50,[3],368
same,pIC50,[8],5.71
same,pIC50,[14],8.28
Cc1cnc(-c2ccnc(C(C)(C)O)n2)cc1-n1c(C)cc(Oc2ncc(F)cc2F)c(Cl)c1=O,pIC50,[14],< 5.00
Cc1cnc(-c2cccc(C(C)(C)O)c2F)c(C)c1-n1c(C)cc(O[C@@H](C)c2ncc(F)cc2F)c(Cl)c1=O,Ratio IC50,[3],109
same,pIC50,[8],5.85
same,pIC50,[14],7.89
Cc1cnc(-c2ccnc(C(C)(C)O)n2)cc1-c1c(C)cc(OCc2ncc(F)cc2F)c(Cl)c1F,pIC50,[14],< 5.00
Cc1cnc(-c2ccnc(C(C)(C)O)n2)cc1-n1c(C)cc(OCc2ncc(F)cc2F)c(C)c1=O,pIC50,[14],7.06
Cc1cnc(-c2ccnc(C(C)(C)O)n2)c(F)c1-n1c(C)cc(O[C@@H](C)c2ncc(F)cc2F)c(C(F)F)c1=O,pIC50,[14],6.95
Cc1cnc(-c2ccnc(C(C)(C)O)n2)c(F)c1-n1c(C)cc(OCc2ncc(F)cc2F)c(C)c1=O,Ratio IC50,[3],1330
same,half-life,[4],0.9 h
same,pIC50,[8],5.27
same,pIC50,[14],8.40
same,MRT,[15],1.1 h
same,AUC(0-t) at 24 h,[17],1310 ng·h/mL
same,Cmax,[18],496 ng/mL
same,AUC(0-t) at 24 h,[19],1170 ng·h/mL
same,bioavailability,[21],56%
same,clearance,[25],13.9 mL/min/kg
same,Vd,[28],0.9 L/kg
